Values of other authors, collected in publication PMC2805559 (Journal of medicinal chemistry, 2009).

Assays:
Hsp90-IP6K2 interaction = details: ref [16]
tumor = details: ref [1]

Row | Compound | effect on binding of IP6K2 to Hsp90 (Hsp90-IP6K2 interaction) | anti-tumor activity (tumor)
1 | C=CCNC1=C2C[C@@H](C)C[C@H](OC)[C@H](O)[C@@H](C)/C=C(\C)[C@H](OC(N)=O)[C@@H](OC)/C=C\C=C(/C)C(=O)NC(=CC1=O)C2=O [17-AAG, 17-allylamino, 17-demethoxygeldanamycin] | does not affect the binding | 
2 | Sansalvamide A |  | micromolar potency
